From US10647747B2, “Cyclosporin derivatives and uses thereof” (S&T Global Inc., priority 2010, dated 2020)
Read-outs that look alike come from different tables or passages of the source.

Tested on: HCV replicon in cell line ET (luc-ubi-neo/ET), Huh7 human hepatoma
Experiment: HCV subgenomic replicon assay, luciferase end point
Format: cell-based
Details: read-out: Antiviral activity EC50
[1] = HCV subgenomic replicon, cell line ET (luc-ubi-neo/ET) Huh7, luciferase end point
[2] = Table 12, HCV replicon luciferase

Compound `C/C=C/C[C@@H](C)[C@@H](O)[C@H]1C(=O)N[C@@H](CC)C(=O)N(C)[C@H](CSCCN2CCN(C)CC2)C(=O)N(C)[C@@H](CC(C)(C)O)C(=O)N[C@@H](C(C)C)C(=O)N(C)[C@@H](CC(C)C)C(=O)N[C@@H](C)C(=O)N[C@H](C)C(=O)N(C)[C@@H](CC(C)C)C(=O)N(C)[C@@H](CC(C)C)C(=O)N(C)[C@@H](C(C)C)C(=O)N1C` has an EC50 (Hepatitis C virus, Huh-7, Table 14, HCV replicon luciferase) of 30 nM.

`CC=CCC(C)C(O)C1C(=O)NC(CC)C(=O)N(C)C(CSCCN2CCCC2)C(=O)N(C)C(CC(C)(C)OC)C(=O)NC(C(C)C)C(=O)N(C)C(CC(C)C)C(=O)NC(C)C(=O)NC(C)C(=O)N(C)C(CC(C)C)C(=O)N(C)C(CC(C)C)C(=O)N(C)C(C(C)C)C(=O)N1C` (stereo not shown) was tested, and the EC50 [1] was 90 nM.

`CC=CCC(C)C(O)C1C(=O)NC(CC)C(=O)N(C)C(COCCCN(CC)CC)C(=O)N(C)C(CC(C)(C)OC)C(=O)NC(C(C)C)C(=O)N(C)C(CC(C)C)C(=O)NC(C)C(=O)NC(C)C(=O)N(C)C(CC(C)C)C(=O)N(C)C(CC(C)C)C(=O)N(C)C(C(C)C)C(=O)N1C` (stereo not shown) showed an EC50 [1] of 100 nM.

Work on `C/C=C/C[C@@H](C)[C@@H](O)[C@H]1C(=O)N[C@@H](CC)C(=O)N(C)[C@H](CSCCCN(C)C)C(=O)N(C)[C@@H](CC(C)(C)O)C(=O)N[C@@H](C(C)C)C(=O)N(C)[C@@H](CC(C)C)C(=O)N[C@@H](C)C(=O)N[C@H](C)C(=O)N(C)[C@@H](CC(C)C)C(=O)N(C)[C@@H](CC(C)C)C(=O)N(C)[C@@H](C(C)C)C(=O)N1C` yielded an EC50 [1] of 110 nM.

In the case of `C/C=C/C[C@@H](C)[C@@H](O)[C@H]1C(=O)N[C@@H](CC)C(=O)N(C)[C@@H](CSCCN(CC)CC)C(=O)N(C)[C@@H](CC(C)(C)O)C(=O)N[C@@H](C(C)C)C(=O)N(C)[C@@H](CC(C)C)C(=O)N[C@@H](C)C(=O)N[C@H](C)C(=O)N(C)[C@@H](CC(C)C)C(=O)N(C)[C@@H](CC(C)C)C(=O)N(C)[C@@H](C(C)C)C(=O)N1C` (single isomer, unassigned; isomer a) [listing 1 of 2 here], the EC50 (Table 14, HCV replicon luciferase) is reported as 2120 nM.

Compound `CC=CCC(C)C(O)C1C(=O)NC(CC)C(=O)N(C)C(SCCN(C)C)C(=O)N(C)C(C(C)C)C(=O)NC(C(C)C)C(=O)N(C)C(CC(C)C)C(=O)NC(C)C(=O)NC(C)C(=O)N(C)C(CC(C)C)C(=O)N(C)C(CC(C)C)C(=O)N(C)C(C(C)C)C(=O)N1C` [(S)-2-(N,N-Dimethylamino)ethylthio-Sar]-3-[N-MeVal]-4-cyclosporin] has an EC50 [2] of 130 nM.

`CC=CCC(C)C(O)C1C(=O)NC(CC)C(=O)N(C)C(SCCNCC(C)(C)C)C(=O)N(C)C(CC(C)C)C(=O)NC(C(C)C)C(=O)N(C)C(CC(C)C)C(=O)NC(C)C(=O)NC(C)C(=O)N(C)C(CC(C)C)C(=O)N(C)C(CC(C)C)C(=O)N(C)C(C(C)C)C(=O)N1C` [(R)-2-(N-neo-Pentylamino)ethylthio-Sar]-3-cyclosporin] gave an EC50 [2] of 3090 nM.

In the case of `C/C=C/C[C@@H](C)[C@@H](O)[C@H]1C(=O)N[C@@H](CC)C(=O)N(C)[C@@H](CSCCN(CC)CC)C(=O)N(C)[C@@H](CC(C)(C)O)C(=O)N[C@@H](C(C)C)C(=O)N(C)[C@@H](CC(C)C)C(=O)N[C@@H](C)C(=O)N[C@H](C)C(=O)N(C)[C@@H](CC(C)C)C(=O)N(C)[C@@H](CC(C)C)C(=O)N(C)[C@@H](C(C)C)C(=O)N1C` (single isomer, unassigned; isomer a) [listing 2 of 2 here], the EC50 (Table 13, HCV replicon luciferase) is reported as 2120 nM.

Work on `C/C=C/C[C@@H](C)[C@@H](O)[C@H]1C(=O)N[C@@H](CC)C(=O)N(C)[C@H](COCCN(C)C)C(=O)N(C)[C@@H](CC(C)C)C(=O)N[C@@H](C(C)C)C(=O)N(C)[C@@H](CC(C)C)C(=O)N[C@@H](C)C(=O)N[C@H](C)C(=O)N(C)[C@@H](CC(C)C)C(=O)N(C)[C@@H](CC(C)C)C(=O)N(C)[C@@H](C(C)C)C(=O)N1C` [[(R)-(2-(N,N-Dimethylamino)ethoxy)methyl-Sar]-3-cyclosporin] yielded an EC50 (Hepatitis C virus, Huh-7, HCV subgenomic replicon, cell line ET (luc-ubi-neo/ET) Huh7, luciferase end point) of 150 nM.

`CC=CCC(C)C(O)C1C(=O)NC(CC)C(=O)N(C)C(CSCCCN2CCSCC2)C(=O)N(C)C(CC(C)(C)O)C(=O)NC(C(C)C)C(=O)N(C)C(CC(C)C)C(=O)NC(C)C(=O)NC(C)C(=O)N(C)C(CC(C)C)C(=O)N(C)C(CC(C)C)C(=O)N(C)C(C(C)C)C(=O)N1C` (stereo not shown) showed an EC50 (Table 16, HCV replicon luciferase) of 50 nM.
